The target of this experiment is Serotonin 5-HT2A (human) (Homo sapiens (Human), UniProt P28223). Briefly: 5-HT2A receptor binding, [3H]-ketanserin competition in membrane fractions. To be noted: 1 nM [3H]-ketanserin, Cheng-Prusoff, N=1-3.
For `C=CCN(CCc1c[nH]c2ccc(F)cc12)C1CCC1` [Example 14, N-allyl-N-(2-(5-fluoro-1H-indol-3-yl)ethyl)cyclobutanamine], the “5-HT2A pKi ± SEM” value amounted to 6.09.
`CCN(C)CCc1c[nH]c2c(Cl)cc(F)cc12` [compound 182, 2-(7-chloro-5-fluoro-1H-indol-3-yl)-N-ethyl-N-methylethan-1-amine]: the “5-HT2A pKi ± SEM” value is 6.62.
Consider `CCC(C)N(CCc1c[nH]c2ccc(F)cc12)C1CCC1` (stereo not shown) [compound 158, N-(sec-butyl)-N-(2-(5-fluoro-1H-indol-3-yl)ethyl)cyclobutanamine], for which the “5-HT2A pKi ± SEM” value worked out at 6.08 ± 0.15.
In the case of `CCCN(CCc1c[nH]c2c(F)cccc12)C(C)CC` (stereo not shown) [compound 163, N-[2-(7-fluoro-1H-indol-3-yl)ethyl]-N-propylbutan-2-amine], the “5-HT2A pKi ± SEM” value is 5.65 ± 0.004.
Turning to `CC(C)N(CC#N)CCc1c[nH]c2ccc(F)cc12` [compound 17, 2-((2-(5-fluoro-1H-indol-3-yl)ethyl)(isopropyl)amino)acetonitrile], the “5-HT2A pKi ± SEM” value was determined as 5.41.
As for `CCCN(CCc1c[nH]c2ccc(F)cc12)C1CC1` [compound 161, N-[2-(5-fluoro-1H-indol-3-yl)ethyl]-N-propylcyclopropanamine], the “5-HT2A pKi ± SEM” value came to 6.50.
Consider `C#CCN(CCc1c[nH]c2ccc(F)cc12)C(C)C` [compound 34, N-(2-(5-fluoro-1H-indol-3-yl)ethyl)-N-isopropylprop-2-yn-1-amine], for which the “5-HT2A pKi ± SEM” value was found to be 5.78.
In the case of `C=CCN(CCC)CCc1c[nH]c2ccc(F)cc12` [compound 35, N-(2-(5-fluoro-1H-indol-3-yl)ethyl)-N-propylprop-2-en-1-amine], the “5-HT2A pKi ± SEM” value turned out to be 6.38 ± 0.29.
With `CCCN(CC)CCc1c[nH]c2c(F)cc(F)cc12` [compound 72, N-[2-(5,7-difluoro-1H-indol-3-yl)ethyl]-N-ethylpropan-1-amine], the “5-HT2A pKi ± SEM” value is given as 6.30 ± 0.06.
As for `CN1CCC[C@@H]1Cc1c[nH]c2c(F)cccc12` [compound 186, (R)-7-fluoro-3-((1-methylpyrrolidin-2-yl)methyl)-1H-indole], the “5-HT2A pKi ± SEM” value was 6.47.
Turning to `CCN(C)CCc1c[nH]c2c(F)cccc12` [Example 7, N-ethyl-2-(7-fluoro-1H-indol-3-yl)-N-methylethan-1-amine], the “5-HT2A pKi ± SEM” value amounted to 6.02.
Consider `CN1CCC[C@@H]1Cc1c[nH]c2cc(F)c(F)cc12` [compound 185, (R)-5,6-difluoro-3-((1-methylpyrrolidin-2-yl)methyl)-1H-indole], for which the “5-HT2A pKi ± SEM” value is on record as 6.90.
In the case of `CCC(C)N(CC#N)CCc1c[nH]c2ccc(F)cc12` (stereo not shown) [compound 177, 2-(sec-butyl(2-(5-fluoro-1H-indol-3-yl)ethyl)amino)acetonitrile], the “5-HT2A pKi ± SEM” value stood at 5.71.
For `CCCN(CCc1c[nH]c2c(F)cccc12)C1CCC1` [compound 162, N-(2-(7-fluoro-1H-indol-3-yl)ethyl)-N-propylcyclobutanamine] the value was 5.91; for `CCCN(CC)CCc1c[nH]c2cc(Cl)c(F)cc12` [compound 37, N-(2-(6-chloro-5-fluoro-1H-indol-3-yl)ethyl)-N-ethylpropan-1-amine], 6.04 ± 0.05.
For `CN(CCc1c[nH]c2ccc(F)cc12)C1CC1` [compound 160, N-(2-(5-fluoro-1H-indol-3-yl)ethyl)-N-methylcyclopropanamine] the value was 7.41 ± 0.33; for `CCCN(CC)CCc1c[nH]c2ccc(F)c(F)c12` [compound 21, N-(2-(4,5-difluoro-1H-indol-3-yl)ethyl)-N-ethylpropan-1-amine], 6.15.
As to `CCN(C)CCc1c[nH]c2c(C)cc(F)cc12` [compound 169, N-ethyl-2-(5-fluoro-7-methyl-1H-indol-3-yl)-N-methylethan-1-amine], the “5-HT2A pKi ± SEM” value was 6.05.
Consider `CCCN1CCC[C@@H]1Cc1c[nH]c2ccc(F)cc12` [compound 184, (R)-5-fluoro-3-((1-propylpyrrolidin-2-yl)methyl)-1H-indole], for which the “5-HT2A pKi ± SEM” value is on record as 6.60.

The record behind these values is patent publication US20240286998A1, “F[…], ANALOGUES THEREOF, AND METHODS USING SAME” (Saint Joseph's University, priority 2021, published 2024).
